Measurements reported in US20040234610A1, “Medical device and method for inhalation of aerosolized drug with heliox” (priority 2001, published 2004).
Where “and” joins values, the source holds several entries; their conditions need not be identical. Equal values may be shown once.

Columns and labels:
[1] = Nebulized particle size distribution by Anderson Cascade Impactor, RES-Q-Neb (T and Y design) vs HOPE nebulizer; type: physicochemical
Experimental: A study was conducted to compare the performance of two embodiments of the heliox nebulization system described herein (called the RES-Q-Neb™ Nebulizer) with a commercially available nebulizer (HOPE™, B&B Medical Technologies, Inc., Orangevale, Calif., USA) that is driven by air.
Measurements were done using an Anderson Cascade Impactor (ACI) operated at an air flow rate of 28.3 L/min. The nebulizers were connected one at a time to the same tee piece and collar. The ACI consisted of eight stages, a backup filter, and an inlet (USP throat).
Gas flows through the nebulizers and impactor were controlled with rotameters, which were set with the DryCal Flow Calubrator (BIOS International Co., Pomton Plains, N.J.).
Heliox (80% helium, 20% oxygen) at 18 L/min was used to drive the RES-Q-Neb Nebulizer and another 18 L/min of the heliox was introduced into the system at the reservoir bag side port. […] The HOPE nebulizer was driven with compressed air at 10 L/min (as directed in its included label and instructions), and 18 L/min of heliox was introduced into the system at a side port, as shown in FIG. 10.
A pre-running time was used for each test to stabilize the generation of aerosol. The RES-Q-Neb nebulizer was pre-run for 15 s, and the HOPE nebulizer was pre-run for 30 s. Six tests were run with the RES-Q-Neb nebulizer at the same conditions (3 with the “Y” adaptor and 3 with the “T” adaptor) and five tests were run with the HOPE nebulizer at the same conditions.
After each test, the ACI and empty nebulizers were disassembled and washed with deionized water. The wash water was collected and the amount of drug remaining or collected was determined using spectrophotometric analysis at 224 nm.
The particle sizes are expressed as 50% mass median aerodynamic diameters (MMAD).

[2] = test system: adult patients with severe acute exacerbation of asthma; assay: Same randomized study: vital signs, pulse oximetry, hospital admissions; type: in vivo, human; conditions: for % change HR post neb 1 / % change HR post neb 2 / % change HR post neb 3: mean ± SD; for Hospital admission rate: P=0.81
From the text: The heliox delivery system consisted of a facemask connected to a Y-piece with the nebulizer (Airlife™ Misty-Neb™ Nebulizer) on one limb and a non-rebreather bag on the other limb (as shown in FIG. 1). Heliox flow to the nebulizer was set at 10 liters/minute (via an oxygen calibrated flow meter thus equivalent to 18 L/min Heliox flow). A separate flow of 10 liters/minute of heliox (via an oxygen calibrated flow meter thus equivalent to 18 L/min Heliox flow) was delivered to the non-rebreather bag. […] Each treatment continued until the nebulizer was dry—a period of approximately ten minutes, followed by a fifteen minute washout period. The total time for the study was approximately 90 minutes. Corticosteroid therapy for asthma exacerbations was directed by the emergency room physicians, who were not directly involved in the study.
Demographic data, chronic asthma medications, emergency room corticosteroid administration, vital signs (heart rate, mean arterial pressure, respiratory rate), oxygen saturation by pulse oximetry, emergency room length of stay and hospital admissions from the emergency room were recorded for all patients. Data are expressed as mean±SD when normally distributed and median (interquartile range) when not normally distributed. Interval data were compared using a two-tailed Student's t test or Mann Whitney U test according to normality of distribution, categorical data were compared using Chi square or Fisher Exact test when appropriate. […] The Student-Newman-Keuls test was used to compare differences between heliox and control groups after each nebulization treatment when appropriate. […] A 25% difference in percent change in FEV1 between the control and heliox groups was considered clinically important. Using a standard deviation of 28% (based on preliminary work), an a error of 0.05 and a β error of 0.20, it was estimated that a total of 42 patients (21 in each group) would be needed to avoid a type II error. […] In this situation, a P value of <0.0167 was considered to indicate statistical significance.

[3] = HOPE nebulizer, compressed air 10 L/min nebulizer + heliox 18 L/min side port
[4] = HOPE nebulizer, compressed air 10 L/min nebulizer + heliox 18 L/min side port, mean of 5 tests
[5] = HOPE nebulizer, compressed air 10 L/min nebulizer + heliox 18 L/min side port, single tests, listed as Albuterol sulfate
[6] = RES-Q-Neb T design, heliox 18 L/min nebulizer + 18 L/min side port
[7] = RES-Q-Neb T design, heliox 18 L/min nebulizer + 18 L/min side port, mean of 3 tests
[8] = RES-Q-Neb T design, heliox 18 L/min nebulizer + 18 L/min side port, single tests, listed as Albuterol sulfate
[9] = RES-Q-Neb Y design, heliox 18 L/min nebulizer + 18 L/min side port (18-18 lpm)
[10] = RES-Q-Neb Y design, heliox 18 L/min nebulizer + 18 L/min side port, mean of 3 tests
[11] = RES-Q-Neb Y design, heliox 18 L/min nebulizer + 18 L/min side port, single tests, listed as Albuterol sulfate

CC(C)(C)NCC(O)c1ccc(O)c(CO)c1 (stereo not shown) [albuterol]
0.7 ≦ Mean Fraction < 5.8 μm [1, 3]: 0.503
Mean Fraction < 0.7 μm [1, 3]: 0.052
Mean Fraction at Midpoint = 1.52 μm [1, 3]: 0.227
Mean Fraction ≧ 5.8 μm [1, 3]: 0.446
Mean Fraction, Collar [1, 4]: 0.009
Mean Fraction, Filter (cut-size <0.4 micron) [1, 4]: 0.015
Mean Fraction, Stage 0 (cut-size 9 micron) [1, 4]: 0.110
Mean Fraction, Stage 1 (cut-size 5.8 micron) [1, 4]: 0.151
Mean Fraction, Stage 2 (cut-size 4.7 micron) [1, 4]: 0.044
Mean Fraction, Stage 3 (cut-size 3.3 micron) [1, 4]: 0.099
Mean Fraction, Stage 4 (cut-size 2.1 micron) [1, 4]: 0.119
Mean Fraction, Stage 5 (cut-size 1.1 micron) [1, 4]: 0.227
Mean Fraction, Stage 6 (cut-size 0.7 micron) [1, 4]: 0.014
Mean Fraction, Stage 7 (cut-size 0.4 micron) [1, 4]: 0.037
Mean Fraction, Tee Piece [1, 4]: 0.060
Mean Fraction, Throat (cut-size >9 micron) [1, 4]: 0.034
Mean Fraction, Tube [1, 4]: 0.082
Fraction, Stage 1 (cut-size 5.8 micron) [1, 5]: 0.139 and 0.164 and 0.154 and 0.138 and 0.160
Fraction, Stage 2 (cut-size 4.7 micron) [1, 5]: 0.039 and 0.047 and 0.044 and 0.045
Fraction, Stage 3 (cut-size 3.3 micron) [1, 5]: 0.088 and 0.110 and 0.109 and 0.090 and 0.099
Fraction, Tee Piece [1, 5]: 0.066 and 0.056 and 0.058 and 0.052 and 0.069
Fraction, Throat (cut-size >9 micron) [1, 5]: 0.033 and 0.037 and 0.036 and 0.030 and 0.035
Fraction, Tube [1, 5]: 0.105 and 0.077 and 0.073 and 0.081 and 0.074
0.7 ≦ Mean Fraction < 5.8 μm [1, 6]: 0.697
Mean Fraction < 0.7 μm [1, 6]: 0.218
Mean Fraction at Midpoint = 1.52 μm [1, 6]: 0.519
Mean Fraction ≧ 5.8 μm [1, 6]: 0.086
mean output rate [1, 6]: 0.54 mL/min
Mean Fraction, Adapter [1, 7]: 0.033
Mean Fraction, Collar [1, 7]: 0.008
Mean Fraction, Filter (cut-size <0.4 micron) [1, 7]: 0.044
Mean Fraction, Stage 0 (cut-size 9 micron) [1, 7]: 0.010
Mean Fraction, Stage 1 (cut-size 5.8 micron) [1, 7]: 0.015
Mean Fraction, Stage 2 (cut-size 4.7 micron) [1, 7]: 0.005
Mean Fraction, Stage 3 (cut-size 3.3 micron) [1, 7]: 0.009
Mean Fraction, Stage 4 (cut-size 2.1 micron) [1, 7]: 0.061
Mean Fraction, Stage 5 (cut-size 1.1 micron) [1, 7]: 0.519
Mean Fraction, Stage 6 (cut-size 0.7 micron) [1, 7]: 0.103
Mean Fraction, Stage 7 (cut-size 0.4 micron) [1, 7]: 0.174
Mean Fraction, T-Piece [1, 7]: 0.017
Mean Fraction, Throat (cut-size >9 micron) [1, 7]: 0.003
Fraction, Filter (cut-size <0.4 micron) [1, 8]: 0.037 and 0.049 and 0.045
Fraction, Stage 7 (cut-size 0.4 micron) [1, 8]: 0.148 and 0.166 and 0.207
mean output rate ([1]; RES-Q-Neb Y design, heliox 18 L/min nebulizer + 18 L/min side port): 0.59 mL/min
0.7 ≦ Mean Fraction < 5.8 μm [1, 9]: 0.657
Mean Fraction < 0.7 μm [1, 9]: 0.239
Mean Fraction at Midpoint = 1.52 μm [1, 9]: 0.422
Mean Fraction ≧ 5.8 μm [1, 9]: 0.105
Mean Fraction, Adapter [1, 10]: 0.040
Mean Fraction, Collar [1, 10]: 0.009
Mean Fraction, Filter (cut-size <0.4 micron) [1, 10]: 0.053
Mean Fraction, Stage 0 (cut-size 9 micron) [1, 10]: 0.012
Mean Fraction, Stage 1 (cut-size 5.8 micron) [1, 10]: 0.019
Mean Fraction, Stage 2 (cut-size 4.7 micron) [1, 10]: 0.007
Mean Fraction, Stage 3 (cut-size 3.3 micron) [1, 10]: 0.010
Mean Fraction, Stage 4 (cut-size 2.1 micron) [1, 10]: 0.072
Mean Fraction, Stage 5 (cut-size 1.1 micron) [1, 10]: 0.422
Mean Fraction, Stage 6 (cut-size 0.7 micron) [1, 10]: 0.146
Mean Fraction, Stage 7 (cut-size 0.4 micron) [1, 10]: 0.186
Mean Fraction, Throat (cut-size >9 micron) [1, 10]: 0.004
Mean Fraction, Y-Piece [1, 10]: 0.021
Fraction, Filter (cut-size <0.4 micron) [1, 11]: 0.056 and 0.060 and 0.043
Fraction, Stage 1 (cut-size 5.8 micron) [1, 11]: 0.014 and 0.023 and 0.020
Fraction, Stage 6 (cut-size 0.7 micron) [1, 11]: 0.148 and 0.144
Fraction, Stage 7 (cut-size 0.4 micron) [1, 11]: 0.169 and 0.180 and 0.208
Fraction, Y-Piece [1, 11]: 0.026 and 0.022 and 0.015
less particles >5.8 μm, present device/method vs HOPE nebulizer ([1]; less than HOPE): approximately 34%
greater fraction of particles ≥0.7 and <5.8 μm (breathable range), present device/method vs HOPE nebulizer ([1]; more than HOPE): approximately 20%
more particles <0.7 μm, present device/method vs HOPE nebulizer ([1]; more than HOPE): about 15%
more particles with a midpoint diameter of 1.52 μm, present device/method vs HOPE nebulizer ([1]; more than HOPE): approximately 22%
differences in other vital signs or pulse oximetry, heliox vs control ([2]; MAP, RR, SpO2, at any point during the study): no other significant differences in any vital signs or in pulse oximetry between the groups
% change HR post neb 1 ([2]; control (oxygen)): −8.7 ± 7.4%
% change HR post neb 2 ([2]; control (oxygen)): −4.6 ± 8.7%
% change HR post neb 3 ([2]; control (oxygen)): −2.7 ± 12.7%
Hospital admission rate ([2]; control group (oxygen)): 6 of 22
Hospital admission rate ([2]; heliox group): 6 of 23
% change HR post neb 1 ([2]; heliox, P 0.01 vs control): −0.9 ± 7.8%
% change HR post neb 3 ([2]; heliox, P 0.01 vs control): 5.6 ± 12.0%
% change HR post neb 2 ([2]; heliox, P 0.08 vs control): 1.0 ± 11.3%
